Tests used:
late watergrass = assay: Test Example 1: herbicidal activity, application before weed generation under submerged conditions (Table 16, symbol A); type: in vivo, late watergrass (Echinochloa oryzicola); settings: amount of applied herbicide 320 g/ha
How it was run: (§1)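 Emulsion formulation, water-diluted to set dose, was put onto the flooded surface (4 cm depth, alluvial soil) the same day weeds were sown and 2.5-leaf rice transplanted. After 3 weeks at 25-30 °C under glass, each species was rated 0 (≤5% kill) to 5 (≥90% kill).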

Japanese bulrush = assay: Test Example 1: herbicidal activity, application before weed generation under submerged conditions (Table 16, symbol B); type: in vivo, Japanese bulrush (Schoenoplectus juncoides); settings: amount of applied herbicide 320 g/ha
How it was run: as §1

oval-leafed pondweed = assay: Test Example 1: herbicidal activity, application before weed generation under submerged conditions (Table 16, symbol C); type: in vivo, oval-leafed pondweed (Monochoria vaginalis); settings: amount of applied herbicide 320 g/ha
How it was run: as §1

barnyard grass [1] = assay: Test Example 3: herbicidal effect by foliage application, Wagner pot (Table 18, symbol H); type: in vivo, barnyard grass (Echinochloa crus-galli); settings: 320 g/ha
How it was run: (§2)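 Plants were sown in alluvial soil held under 0.1–0.5 cm standing water and grown 14 days in a greenhouse at 25–30 °C. An emulsifiable formulation, water-diluted to the set dose, was then sprayed onto the foliage, and effects were scored three weeks later using previously defined criteria.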

Chinese sprangletop = assay: Test Example 3: herbicidal effect by foliage application, Wagner pot (Table 18, symbol D); type: in vivo, chinese sprangletop (Leptochloa chinensis); settings: 320 g/ha
How it was run: as §2

rice flat sedge = assay: Test Example 3: herbicidal effect by foliage application, Wagner pot (Table 18, symbol E); type: in vivo, rice flat sedge (Cyperus iria); settings: 320 g/ha
How it was run: as §2

southern crabgrass [2] = assay: Test Example 4: herbicidal effect by soil treatment (Table 19, symbol F); type: in vivo, southern crabgrass (Digitaria ciliaris); settings: amount of applied herbicide 320 g/ha
How it was run: (§3)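 Applied as a water-diluted emulsion, the compound was sprayed onto soil covering newly sown seeds. Evaluation came three weeks after application, in a greenhouse held at 25° C. to 30° C.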

green foxtail [3] = assay: Test Example 4: herbicidal effect by soil treatment (Table 19, symbol G); type: in vivo, green foxtail (Setaria viridis); settings: amount of applied herbicide 320 g/ha
How it was run: as §3

barnyard grass [4] = assay: Test Example 4: herbicidal effect by soil treatment (Table 19, symbol H); type: in vivo, barnyard grass (Echinochloa crus-galli); settings: amount of applied herbicide 320 g/ha
How it was run: as §3

wild oat [5] = assay: Test Example 4: herbicidal effect by soil treatment (Table 19, symbol I); type: in vivo, wild oat (Avena fatua); settings: amount of applied herbicide 320 g/ha
How it was run: as §3

blackgrass [6] = assay: Test Example 4: herbicidal effect by soil treatment (Table 19, symbol J); type: in vivo, blackgrass (Alopecurus myosuroides); settings: amount of applied herbicide 320 g/ha
How it was run: as §3

Italian ryegrass [7] = assay: Test Example 4: herbicidal effect by soil treatment (Table 19, symbol K); type: in vivo, Italian ryegrass (Lolium multiflorum); settings: amount of applied herbicide 320 g/ha
How it was run: as §3

windgrass [8] = assay: Test Example 4: herbicidal effect by soil treatment (Table 19, symbol L); type: in vivo, windgrass (Apera spica-venti); settings: amount of applied herbicide 320 g/ha
How it was run: as §3

velvetleaf [9] = assay: Test Example 4: herbicidal effect by soil treatment (Table 19, symbol M); type: in vivo, velvetleaf (Abutilon theophrasti); settings: amount of applied herbicide 320 g/ha
How it was run: as §3

redroot pigweed [10] = assay: Test Example 4: herbicidal effect by soil treatment (Table 19, symbol N); type: in vivo, redroot pigweed (Amaranthus retroflexus); settings: amount of applied herbicide 320 g/ha
How it was run: as §3

lambsquarters [11] = assay: Test Example 4: herbicidal effect by soil treatment (Table 19, symbol O); type: in vivo, lambsquarters (Chenopodium album); settings: amount of applied herbicide 320 g/ha
How it was run: as §3

chickweed [12] = assay: Test Example 4: herbicidal effect by soil treatment (Table 19, symbol P); type: in vivo, common chickweed (Stellaria media); settings: amount of applied herbicide 320 g/ha
How it was run: as §3

persian speedwell [13] = assay: Test Example 4: herbicidal effect by soil treatment (Table 19, symbol R); type: in vivo, Persian speedwell (Veronica persica); settings: amount of applied herbicide 320 g/ha
How it was run: as §3

southern crabgrass [14] = assay: Test Example 5: herbicidal effect by foliage application, plastic box (Table 20, symbol F); type: in vivo, southern crabgrass (Digitaria ciliaris); settings: 320 g/ha, foliage application after 14-day growth, evaluated three weeks after application
How it was run: (§4)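 Sow seeds spot-wise in sterilized diluvial soil; cover with ~1.5 cm soil. Grow 14 days in greenhouse, 25° C. to 30° C. Spray foliage with emulsion diluted to predetermined amount. Rate effect after 3 weeks.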

green foxtail [15] = assay: Test Example 5: herbicidal effect by foliage application, plastic box (Table 20, symbol G); type: in vivo, green foxtail (Setaria viridis); settings: 320 g/ha, foliage application after 14-day growth, evaluated three weeks after application
How it was run: as §4

barnyard grass [16] = assay: Test Example 5: herbicidal effect by foliage application, plastic box (Table 20, symbol H); type: in vivo, barnyard grass (Echinochloa crus-galli); settings: 320 g/ha, foliage application after 14-day growth, evaluated three weeks after application
How it was run: as §4

wild oat [17] = assay: Test Example 5: herbicidal effect by foliage application, plastic box (Table 20, symbol I); type: in vivo, wild oat (Avena fatua); settings: 320 g/ha, foliage application after 14-day growth, evaluated three weeks after application
How it was run: as §4

blackgrass [18] = assay: Test Example 5: herbicidal effect by foliage application, plastic box (Table 20, symbol J); type: in vivo, blackgrass (Alopecurus myosuroides); settings: 320 g/ha, foliage application after 14-day growth, evaluated three weeks after application
How it was run: as §4

Italian ryegrass [19] = assay: Test Example 5: herbicidal effect by foliage application, plastic box (Table 20, symbol K); type: in vivo, Italian ryegrass (Lolium multiflorum); settings: 320 g/ha, foliage application after 14-day growth, evaluated three weeks after application
How it was run: as §4

windgrass [20] = assay: Test Example 5: herbicidal effect by foliage application, plastic box (Table 20, symbol L); type: in vivo, windgrass (Apera spica-venti); settings: 320 g/ha, foliage application after 14-day growth, evaluated three weeks after application
How it was run: as §4

velvetleaf [21] = assay: Test Example 5: herbicidal effect by foliage application, plastic box (Table 20, symbol M); type: in vivo, velvetleaf (Abutilon theophrasti); settings: 320 g/ha, foliage application after 14-day growth, evaluated three weeks after application
How it was run: as §4

redroot pigweed [22] = assay: Test Example 5: herbicidal effect by foliage application, plastic box (Table 20, symbol N); type: in vivo, redroot pigweed (Amaranthus retroflexus); settings: 320 g/ha, foliage application after 14-day growth, evaluated three weeks after application
How it was run: as §4

lambsquarters [23] = assay: Test Example 5: herbicidal effect by foliage application, plastic box (Table 20, symbol O); type: in vivo, lambsquarters (Chenopodium album); settings: 320 g/ha, foliage application after 14-day growth, evaluated three weeks after application
How it was run: as §4

chickweed [24] = assay: Test Example 5: herbicidal effect by foliage application, plastic box (Table 20, symbol P); type: in vivo, common chickweed (Stellaria media); settings: 320 g/ha, foliage application after 14-day growth, evaluated three weeks after application
How it was run: as §4

persian speedwell [25] = assay: Test Example 5: herbicidal effect by foliage application, plastic box (Table 20, symbol R); type: in vivo, Persian speedwell (Veronica persica); settings: 320 g/ha, foliage application after 14-day growth, evaluated three weeks after application
How it was run: as §4

| Structure (SMILES) | Herbicidal effect, A: late watergrass (late watergrass) | Herbicidal effect, B: Japanese bulrush (Japanese bulrush) | Herbicidal effect, C: oval-leafed pondweed (oval-leafed pondweed) | herbicidal effect on barnyard grass (H) (barnyard grass [1]) | herbicidal effect on Chinese sprangletop (D) (Chinese sprangletop) | herbicidal effect on rice flat sedge (E) (rice flat sedge) | Herbicidal effect by soil treatment, F: southern crabgrass (southern crabgrass [2]) | Herbicidal effect by soil treatment, G: green foxtail (green foxtail [3]) | Herbicidal effect by soil treatment, H: barnyard grass (barnyard grass [4]) | Herbicidal effect by soil treatment, I: wild oat (wild oat [5]) | Herbicidal effect by soil treatment, J: blackgrass (blackgrass [6]) | Herbicidal effect by soil treatment, K: Italian ryegrass (Italian ryegrass [7]) | Herbicidal effect by soil treatment, L: windgrass (windgrass [8]) | Herbicidal effect by soil treatment, M: velvetleaf (velvetleaf [9]) | Herbicidal effect by soil treatment, N: redroot pigweed (redroot pigweed [10]) | Herbicidal effect by soil treatment, O: lambsquarters (lambsquarters [11]) | Herbicidal effect by soil treatment, P: chickweed (chickweed [12]) | Herbicidal effect by soil treatment, R: persian speedwell (persian speedwell [13]) | herbicidal effect on F: southern crabgrass (evaluation grade 0-5) (southern crabgrass [14]) | herbicidal effect on G: green foxtail (evaluation grade 0-5) (green foxtail [15]) | also measured |
| --- | --- | --- | --- | --- | --- | --- | --- | --- | --- | --- | --- | --- | --- | --- | --- | --- | --- | --- | --- | --- | --- |
| CCCC(=O)Oc1c(C)nn(C)c(=O)c1-c1c(-c2ccccc2OCC)sc2c(F)cccc12 [4-008] | 3 (Herbicidal rate of 40% or more and less than 70%) | 3 (Herbicidal rate of 40% or more and less than 70%) | 0 (Herbicidal rate of 5% or less (almost no effect)) | 5 (Herbicidal rate of 90% or more (almost completely withered)) | 3 (Herbicidal rate of 40% or more and less than 70%) | 5 (Herbicidal rate of 90% or more (almost completely withered)) | 2 (Herbicidal rate of 20% or more and less than 40%) | 3 (Herbicidal rate of 40% or more and less than 70%) | 3 (Herbicidal rate of 40% or more and less than 70%) | 0 (Herbicidal rate of 5% or less (almost no effect)) | 0 (Herbicidal rate of 5% or less (almost no effect)) | 0 (Herbicidal rate of 5% or less (almost no effect)) | 0 (Herbicidal rate of 5% or less (almost no effect)) | 1 (Herbicidal rate of 5% or more and less than 20%) | 2 (Herbicidal rate of 20% or more and less than 40%) | 2 (Herbicidal rate of 20% or more and less than 40%) | 1 (Herbicidal rate of 5% or more and less than 20%) | 0 (Herbicidal rate of 5% or less (almost no effect)) | 4 (Herbicidal rate of 70% or more and less than 90%) | 5 (Herbicidal rate of 90% or more (almost completely withered)) | herbicidal effect on H: barnyard grass (evaluation grade 0-5) (barnyard grass [16]): 4 (Herbicidal rate of 70% or more and less than 90%); herbicidal effect on I: wild oat (evaluation grade 0-5) (wild oat [17]): 0 (Herbicidal rate of 5% or less (almost no effect)); herbicidal effect on J: blackgrass (evaluation grade 0-5) (blackgrass [18]): 3 (Herbicidal rate of 40% or more and less than 70%); herbicidal effect on K: Italian ryegrass (evaluation grade 0-5) (Italian ryegrass [19]): 0 (Herbicidal rate of 5% or less (almost no effect)); herbicidal effect on L: windgrass (evaluation grade 0-5) (windgrass [20]): 5 (Herbicidal rate of 90% or more (almost completely withered)); herbicidal effect on M: velvetleaf (evaluation grade 0-5) (velvetleaf [21]): 4 (Herbicidal rate of 70% or more and less than 90%); herbicidal effect on N: redroot pigweed (evaluation grade 0-5) (redroot pigweed [22]): 5 (Herbicidal rate of 90% or more (almost completely withered)); herbicidal effect on O: lambsquarters (evaluation grade 0-5) (lambsquarters [23]): 3 (Herbicidal rate of 40% or more and less than 70%); herbicidal effect on P: chickweed (evaluation grade 0-5) (chickweed [24]): 5 (Herbicidal rate of 90% or more (almost completely withered)); herbicidal effect on R: persian speedwell (evaluation grade 0-5) (persian speedwell [25]): 4 (Herbicidal rate of 70% or more and less than 90%) |
| CCCC(=O)Oc1c(C)nn(C)c(=O)c1-c1c(-c2ccc(OC(F)(F)F)cc2)sc2c(F)cccc12 [4-049] | 3 (Herbicidal rate of 40% or more and less than 70%) | 0 (Herbicidal rate of 5% or less (almost no effect)) | 0 (Herbicidal rate of 5% or less (almost no effect)) | 5 (Herbicidal rate of 90% or more (almost completely withered)) | 3 (Herbicidal rate of 40% or more and less than 70%) | 5 (Herbicidal rate of 90% or more (almost completely withered)) | 0 (Herbicidal rate of 5% or less (almost no effect)) | 0 (Herbicidal rate of 5% or less (almost no effect)) | 0 (Herbicidal rate of 5% or less (almost no effect)) | 0 (Herbicidal rate of 5% or less (almost no effect)) | 0 (Herbicidal rate of 5% or less (almost no effect)) | 0 (Herbicidal rate of 5% or less (almost no effect)) | 0 (Herbicidal rate of 5% or less (almost no effect)) | 0 (Herbicidal rate of 5% or less (almost no effect)) | 4 (Herbicidal rate of 70% or more and less than 90%) | 3 (Herbicidal rate of 40% or more and less than 70%) | 3 (Herbicidal rate of 40% or more and less than 70%) | 4 (Herbicidal rate of 70% or more and less than 90%) | 0 (Herbicidal rate of 5% or less (almost no effect)) | 4 (Herbicidal rate of 70% or more and less than 90%) | herbicidal effect on H: barnyard grass (evaluation grade 0-5) (barnyard grass [16]): 5 (Herbicidal rate of 90% or more (almost completely withered)); herbicidal effect on I: wild oat (evaluation grade 0-5) (wild oat [17]): 0 (Herbicidal rate of 5% or less (almost no effect)); herbicidal effect on J: blackgrass (evaluation grade 0-5) (blackgrass [18]): 0 (Herbicidal rate of 5% or less (almost no effect)); herbicidal effect on K: Italian ryegrass (evaluation grade 0-5) (Italian ryegrass [19]): 0 (Herbicidal rate of 5% or less (almost no effect)); herbicidal effect on L: windgrass (evaluation grade 0-5) (windgrass [20]): 0 (Herbicidal rate of 5% or less (almost no effect)); herbicidal effect on M: velvetleaf (evaluation grade 0-5) (velvetleaf [21]): 5 (Herbicidal rate of 90% or more (almost completely withered)); herbicidal effect on N: redroot pigweed (evaluation grade 0-5) (redroot pigweed [22]): 5 (Herbicidal rate of 90% or more (almost completely withered)); herbicidal effect on O: lambsquarters (evaluation grade 0-5) (lambsquarters [23]): 3 (Herbicidal rate of 40% or more and less than 70%); herbicidal effect on P: chickweed (evaluation grade 0-5) (chickweed [24]): 5 (Herbicidal rate of 90% or more (almost completely withered)); herbicidal effect on R: persian speedwell (evaluation grade 0-5) (persian speedwell [25]): 5 (Herbicidal rate of 90% or more (almost completely withered)) |

Reference: patent publication US20230085307A1, “PYRIDAZINONE COMPOUND AND HERBICIDE” (NISSAN CHEMICAL CORPORATION, priority 2019, published 2023)
